Test results from paper PMC10079954, “Rational design of phase separating peptides based on phase separating protein sequence of p53” (Scientific Reports, 2023).

Tests used:
[1] = Phase separation of designed peptides by DIC and fluorescence microscopy; assay type: physicochemical; settings: DIC microscopy; 0.9–1.8 mM peptide, 25 mM HEPES, 0.5 mM EDTA, pH 7.0, no salt, MPC polymer-coated coverslip, 20 or 22 °C
Method: Differential interference contrast (DIC) microscopy confirmed that these peptides (0.9–1.8 mM) underwent phase separation in 25 mM HEPES and 0.5 mM EDTA at pH 7.0 (Fig. 2B). To prevent the melting of clusters on the coverslip surface, 2-methacryloyloxyethyl phosphorylcholine (MPC) polymer coating was used[36],[37] (Supplementary Fig. S1). Samples were prepared by sonicating a 2 mM peptide solution or diluting the peptide solution from a 10 mM peptide stock after storage under freezing conditions. Four of the designed peptides, except DPp53N-GSGS-DPp53C2, formed μm-sized spherical clusters. Fluorescence microscopy confirmed the high concentration of peptides labeled with the fluorescent dye Alexa488 in the clusters (Fig. 2B). […] Cross-β structure was also supported by the observation of intrinsic fluorescence upon 400–440 nm excitation[40] (Supplementary Fig. S2). […]
(§1) The DIC and fluorescence modes of an inverted microscope (IX-73; Olympus, Tokyo, Japan) equipped with microscopic objectives (60 × and 10 ×) and a camera (DP74) were used, as described previously. […] DIC and fluorescence images were obtained at 20 or 22 °C. For intrinsic fluorescence measurements, the excitation and detection wavelengths were 440–440 nm and larger than 460 nm, respectively.

[2] = Cross-β structure detection with amyloid-sensitive probe Picogreen; assay type: physicochemical; settings: Picogreen 25 µM, 25 mM HEPES, 0.5 mM EDTA, pH 7.0
Method: Differential interference contrast (DIC) microscopy confirmed that these peptides (0.9–1.8 mM) underwent phase separation in 25 mM HEPES and 0.5 mM EDTA at pH 7.0 (Fig. 2B). To prevent the melting of clusters on the coverslip surface, 2-methacryloyloxyethyl phosphorylcholine (MPC) polymer coating was used[36],[37] (Supplementary Fig. S1). Samples were prepared by sonicating a 2 mM peptide solution or diluting the peptide solution from a 10 mM peptide stock after storage under freezing conditions. Four of the designed peptides, except DPp53N-GSGS-DPp53C2, formed μm-sized spherical clusters. Fluorescence microscopy confirmed the high concentration of peptides labeled with the fluorescent dye Alexa488 in the clusters (Fig. 2B). […] Cross-β structure was also supported by the observation of intrinsic fluorescence upon 400–440 nm excitation[40] (Supplementary Fig. S2). Clusters of aromatic W residues in DPp53N-GSGS-DPp53C2 may lead to the formation of solid aggregates, which is consistent with the results of different systems[21],[34].
as §1, with “previously. We used the solution containing 0.9–1.8 mM designed peptide, 0.1 μM Alexa488-labeled peptide, 25 mM HEPES, and 0.5 mM EDTA at pH 7.0. To detect the cross-β structure, picogreen was added at 25 µM for DPp53N-GSGS-DPp53C2 or 2.5 µM for others instead of the Alexa488-labeled peptide.” for “previously.”
Fig. S8 Time course of cross-β structure formation of designed peptides in droplets monitored by DIC and fluorescence images. The fluorescence was detected corresponding to the amyloid marker Picogreen at 2.5 µM in a solution containing 0.9 mM designed peptides, 25 mM HEPES, and 0.5 mM EDTA at pH 7.0 and 22 °C.

[3] = Salt and 1,6-hexanediol dependence of droplet/aggregate formation (scattering at 350 nm, DIC); assay type: physicochemical; settings: 1 mM peptide, 25 mM HEPES, 0.5 mM EDTA, pH 7.0, 22 °C; scattering at 350 nm and DIC
Method: We detected light scattering corresponding to the designed peptide droplets by measuring OD350 values using an absorbance spectrometer (NanoDrop One; Thermo Fisher).
(A, B) Effect of additives, 1,6-hexandiol (1,6-HD) and NaCl, on aggregate formation of DPp53N-GSGS-DPp53C2 was monitored as the scattering intensity observed at 350 nm (A) and via DIC images (B). The measurements were conducted in a solution containing 25 mM HEPES, 0.5 mM EDTA, and 1 mM DPp53N-GSGS-DPp53C2 in the presence or absence of additives at pH 7.0 and 22 °C.
Fig. S7 Designed peptide droplets are sensitive to salt concentration but not to 1,6-hexandiol. (A, B) Salt-concentration dependence of droplet formation of designed peptides monitored as the scattering intensity at 350 nm (A) and via DIC images (B). (C, D) Effect of 1,6-hexandiol on droplet formation of designed peptides monitored as the scattering intensity at 350 nm (C) and via DIC images (D). The measurements were performed in a solution containing 1 mM designed peptides, 25 mM HEPES, and 0.5 mM EDTA at pH 7.0 and 22 °C. In panels (A) and (C), the errors denote the standard errors of at least three measurements.

[4] = test system: p53 monomer (L344P) mutant; assay: Recruitment (enrichment index) of p53 monomer into designed peptide droplets; design: species or system human
Source text: (§2) We prepared p53 tetramer, dimer, and monomer mutants, as described previously[8],[37],[50]. For the p53 tetramer, a thermostable and cysteine-modified human p53 mutant (C124A, C135V, C141V, W146Y, C182S, V203A, R209P, C229Y, H233Y, Y234F, N235K, Y236F, T253V, N268D, C275A, C277A, and K292C) was used[50]. The dimer and monomer mutants of p53 corresponded to L344A and L344P of the tetramer sequence, respectively[8],[37]. These p53 mutants were expressed with a glutathione S-transferase (GST) tag in E. coli and purified after cleavage of the GST tag, as described previously[50],[51]. The oligomeric state of p53 mutants was confirmed using a gel filtration column (Superdex 200; GE Healthcare). p53 mutants were labeled with Atto488 (ATTO-TEC) or Alexa488 (Thermo Fisher) using maleimide chemistry and then purified using a heparin column (GE Healthcare). We prepared Alexa488-labeled FUS-MBP as described previously[37],[39].
(§3) Recruitment evaluations were performed following the method described in our previous studies[37],[41]. Solutions containing 0.9–1.8 mM designed peptides, 0.1 µM Alexa488-labeled p53 mutants or Alexa488, 25 mM HEPES, 0.5 mM EDTA, and 1 mM DTT at pH 7.0 were used. The solutions were then incubated at 22 °C for five minutes. The aforementioned microscope was used with HILO illumination. To prevent photo-bleaching of the fluorescent samples, we used a laser power of 0.15 mW. The images were acquired at 22 °C. Using the ImageJ software, we calculated the EI values of the individual droplets as follows:2 EI=Idroplet/Isolution, where Idroplet and Isolution represent the average fluorescence intensities of the individual droplets and solutions near the droplets with background substitution, respectively.

[5] = test system: p53 tetramer; assay: Recruitment (enrichment index) of p53 tetramer into designed peptide droplets; design: species or system human; settings: no salt, pH 7.0
Source text: as §2, §3

[6] = test system: p53 dimer (L344A) mutant; assay: Recruitment (enrichment index) of p53 dimer into designed peptide droplets; design: species or system human; settings: (GGGS)3-linker versus GSGS-linker droplets; no salt, pH 7.0
Source text: as §2
Recruitment evaluations were performed following the method described in our previous studies[37],[41]. […] Using the ImageJ software, we calculated the EI values of the individual droplets as follows:2 EI=Idroplet/Isolution, where Idroplet and Isolution represent the average fluorescence intensities of the individual droplets and solutions near the droplets with background substitution, respectively.

[7] = target: 5-FAM-labeled DP_(p53N); assay: fluorescence polarisation; fluorescence anisotropy; non-labeled peptide titrated into 40 nM 5-FAM-labeled DP_(p53N); 25 mM HEPES, 0.5 mM EDTA, 2 mg/mL BSA, 2 mM Trolox, pH 7.0, 25 °C; one-to-one binding model

With “RRRVVQRRRRGSGSEDDDWWMWWD [DPp53N-GSGS-DPp53C2]” the “Cluster morphology (phase separation)” value [1] was “non-spherical clusters that corresponded to solid aggregates”, the “Picogreen fluorescence of clusters” value [2] was “high intensity” and the “Aggregate formation at high concentrations of salt and 1,6-hexanediol” value [3] was “not significantly suppressed”.

For “RRRVVQRRRRGSGSDDDASQEDDD [DPp53N-GSGS-DPp53C1]”, the “Enrichment index (EI) of p53 monomer (L344P) mutant in peptide droplets” value ([4]; 0.9–1.8 mM designed peptide, 0.1 µM Alexa488-labeled p53, 25 mM HEPES, 0.5 mM EDTA, 1 mM DTT, pH 7.0, 22 °C, ± standard error, SEM) was 14.7 ± 0.5 and the “Decrease of average EI of p53 tetramer relative to p53 monomer” value ([5]; droplet interior regions, surface not included) was 2.6 fold.

For “RRRVVQRRRRGGGSGGGSGGGSDDDDDDD [DPp53N-(GGGS)3-D7]”, the “Decrease of average EI of p53 monomer mutant compared to the GSGS-linker peptide” value ([4]; (GGGS)3-linker versus GSGS-linker droplets, no salt, pH 7.0) was 1.8 fold, the “Increase of average EI of p53 dimer mutant compared to the GSGS-linker peptide” value [6] was 3.3 fold and the “Increase of average EI of p53 tetramer compared to the GSGS-linker peptide” value ([5]; (GGGS)3-linker versus GSGS-linker droplets) was 3.1 fold.

Work on GSGSDDDDDDD [GSGS-D7] yielded a fold higher affinity than the DP (p53C)1 fragment for the DP (p53N) fragment [7] of 2 fold.
